Measurements reported in US20240408169A1 (priority 2023, published 2024).
Where two headings read alike, the source gives them in different places. *1 amine or outer side, *2 acyl side, *3 side chain or, on linkers, in order; H or OH if unused. Where a SMILES comes first, the peptide text is derived from it. Bridges are numbered along the chain shown (N, C = ends). [ ]: non-standard residue; d: D form. The star is where a group is joined. X126 = CC(C)C(=O)N1[C@H]2COC[C@@H]1C=C(c1ccc(F)cc1C[C@@H](C(=O)[*:2])N(C)[*:1])C2; NMePhe(2-(4-MorPh),5-Cl) = CN[C@@H](Cc1cc(Cl)ccc1-c1ccc(N2CCOCC2)cc1)C(=O)O; NMeAla(5-Cl-2-cPrO-3-pyridyl) = CN[C@@H](Cc1cc(Cl)cnc1OC1CC1)C(=O)O; X82 = CN([C@@H](Cc1cc(Cl)ccc1-c1cnn(S(C)(=O)=O)c1)C(=O)[*:2])[*:1]; X26 = CN([C@@H](Cc1cc(F)ccc1-c1cnn(C2CC2)c1)C(=O)[*:2])[*:1]; NMe3Pal(2-OiBu,5-Cl) = CN[C@@H](Cc1cc(Cl)cnc1OCC(C)C)C(=O)O; NMehhhLys(Me) = CN([C@@H](CCCCCCCN(C)[*:3])C(=O)[*:2])[*:1]; NMe3Pal(2-OiPr,5-Cl) = CN[C@@H](Cc1cc(Cl)cnc1OC(C)C)C(=O)O; X211 = Cc1ncc(-c2ccc(Cl)cc2C[C@@H](C(=O)[*:2])N(C)[*:1])s1; X22 = CN([C@@H](Cc1cc(Cl)ccc1-c1cnn(C)c1)C(=O)[*:2])[*:1]; NMe(hhhLys) = CN([C@@H](CCCCCCCN[*:3])C(=O)[*:2])[*:1]; cBuCO(3,3-F2-1-CF3) = O=C(C1(C(F)(F)F)CC(F)(F)C1)*; NMePhe(2,5-Cl2) = CN[C@@H](Cc1cc(Cl)ccc1Cl)C(=O)O; X25 = CCOc1ncc(Cl)cc1C[C@@H](C(=O)[*:2])N(C)[*:1]; Pro(trans-4-F) = O=C(O)[C@@H]1C[C@@H](F)CN1; Pivaloyl(3,3,3-F3) = CC(C)(C(=O)*)C(F)(F)F; X27 = O=C([C@]1(C(F)(F)F)CCCCO1)*; X201 = O=C(C1(C(F)F)CC(F)(F)C1)*; Gly(cPr) = N[C@H](C(=O)O)C1CC1

How the values were obtained:
[1] = molecular target: T1, CyclinB1/CDK1 (Homo sapiens, UniProt P14635); assay: Fluorescence Polarization (FP) competitive binding assay, Cyclin B1/Cdk1;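 also: fluorescence polarization read after equilibration at room temperature, with IC50 taken from serially diluted dose-response curves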
T1 construct: purchased Eurofins, discovery 14-450

[2] = molecular target: T2, CyclinA2/CDK2 (Homo sapiens, UniProt P20248); assay: Fluorescence Polarization (FP) competitive binding assay, Cyclin A2/Cdk2; details: 8 nM Cyclin A2/Cdk2, 2 nM FAM probe; average of 2-3 independent experiments; read-out: Cyclin A FP IC50;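 also: plates equilibrated two hours at room temperature before polarization reading, IC50 fitted from eight-concentration compound titration curves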
T2 construct: purchased CRELUX Protein Services

[3] = tested on: NCI-H1048 cells; assay: MTT proliferation assay, NCI-H1048; assay type: cell-based; details: 5 days compound exposure, 1:3 serial dilution starting at 10 μM;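 also: Dose-response in 96-well plates over 8 or 10 concentration points, with exposure spanning 3-4 cell doublings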
[4] = tested on: OVCAR3 cells; assay: MTT proliferation assay, OVCAR3; assay type: cell-based; details: 5 days compound exposure, 1:3 serial dilution starting at 10 μM;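 also: compound given as an 8- or 10-point series, one day after plating, with exposure covering roughly 3-4 cell doublings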
[5] = tested on: WI-38 cells; assay: MTT proliferation assay, WI-38; assay type: cell-based; details: 3 days compound exposure, 1:3 serial dilution starting at 10 μM;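 also: Eight- or ten-point dilution series, with exposure length chosen to span about three to four cell doublings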
[6] = molecular target: T3, CyclinE1/CDK2 (Homo sapiens, UniProt P24864); assay: Fluorescence Polarization (FP) competitive binding assay, Cyclin E1/Cdk2;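 also: readings taken after two-hour equilibration at room temperature in HEPES buffer with NaCl, DTT, NP-40 and BSA, IC50 fitted from eight-concentration serial dilution series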
T3 construct: purchased Eurofins, discovery 14-475

[7] = 10 nM Cyclin B1/Cdk1, 2 nM FAM probe; average of 2-3 independent experiments; read-out: Cyclin B FP IC50
[8] = read-out: Cyclin B FP IC50; 10 nM Cyclin B1/Cdk1, 2 nM FAM probe; average of 2-3 independent experiments
[9] = 10 nM Cyclin E1/Cdk2, 2 nM FAM probe, average of 2-3 independent experiments, read-out: Cyclin E FP IC50

Structure (SMILES)	IC50 [1, 7] [µM]	IC50 [2] [µM]	GI50 [3] [µM]	GI50 [4] [µM]	GI50 [5] [µM]	IC50 [1, 8] [µM]	IC50 [6] [µM]	IC50 [6, 9] [µM]
CC(C)C[C@@H]1NC(=O)[C@@H](N(C)C(=O)[C@@H](NC(=O)[C@@H]2C[C@@H](F)CN2C(=O)C2(C(F)(F)F)CC(F)(F)C2)C2CC2)CC=CCCCCNC(=O)[C@H](Cc2cc(Cl)ccc2C2=CCN(C)CC2)N(C)C1=O (single isomer, unassigned) [Example 56-P1]	0.04	0.86	0.47	1.02	5.76	–	–	–
CC(C)COc1ncc(Cl)cc1C[C@H]1C(=O)N(C)CCCCCCC[C@H](N(C)C(=O)[C@@H](NC(=O)[C@@H]2C[C@@H](F)CN2C(=O)C2(C(F)(F)F)CC(F)(F)C2)C2CC2)C(=O)N[C@@H](CC(C)C)C(=O)N1C [Example 228] ({cBuCO(3,3-F2-1-CF3)}-[Pro(trans-4-F)][Gly(cPr)][NMehhhLys(Me)]L[NMe3Pal(2-OiBu,5-Cl)]; lactam 3-C)	–	–	0.06	0.08	9.54	0.02	0.25	–
CC(C)C[C@@H]1NC(=O)[C@@H](N(C)C(=O)[C@@H](NC(=O)[C@@H]2C[C@@H](F)CN2C(=O)C2(C(F)(F)F)CC(F)(F)C2)C2CC2)CCCCCCCN(C)C(=O)[C@H](Cc2cc(Cl)ccc2Cl)N(C)C1=O [Example 25] ({cBuCO(3,3-F2-1-CF3)}-[Pro(trans-4-F)][Gly(cPr)][NMehhhLys(Me)]L[NMePhe(2,5-Cl2)]; lactam 3-C)	0.02	–	0.03	0.04	8.07	–	–	0.23
CCOc1ncc(Cl)cc1C[C@H]1C(=O)N(C)CCCCCCC[C@H](N(C)C(=O)[C@@H](NC(=O)[C@@H]2C[C@@H](F)CN2C(=O)C2(C(F)(F)F)CC(F)(F)C2)C2CC2)C(=O)N[C@@H](CC(C)C)C(=O)N1C [Example 225] ({cBuCO(3,3-F2-1-CF3)}-[Pro(trans-4-F)][Gly(cPr)][NMehhhLys(Me)]L[X25]; lactam 3-C)	–	–	0.02	0.03	8.53	0.02	0.19	–
CC(C)C[C@@H]1NC(=O)[C@@H](N(C)C(=O)[C@@H](NC(=O)[C@@H]2C[C@@H](F)CN2C(=O)C2(C(F)(F)F)CC(F)(F)C2)C2CC2)CCCCCCCN(C)C(=O)[C@H](Cc2cc(Cl)cnc2OC(C)C)N(C)C1=O [Example 120] ({cBuCO(3,3-F2-1-CF3)}-[Pro(trans-4-F)][Gly(cPr)][NMehhhLys(Me)]L[NMe3Pal(2-OiPr,5-Cl)]; lactam 3-C)	0.02	–	0.1	0.13	9.28	–	–	0.21
CC(C)C[C@@H]1NC(=O)[C@@H](N(C)C(=O)[C@@H](NC(=O)[C@@H]2C[C@@H](F)CN2C(=O)C2(C(F)(F)F)CC(F)(F)C2)C2CC2)CCCCCCCN(C)C(=O)[C@H](Cc2cc(Cl)cnc2OC2CC2)N(C)C1=O [Example 105] ({cBuCO(3,3-F2-1-CF3)}-[Pro(trans-4-F)][Gly(cPr)][NMehhhLys(Me)]L[NMeAla(5-Cl-2-cPrO-3-pyridyl)]; lactam 3-C)	–	–	0.02	0.03	18.8	–	–	–
CC(C)C[C@@H]1NC(=O)[C@@H](N(C)C(=O)[C@@H](NC(=O)[C@@H]2C[C@@H](F)CN2C(=O)C2(C(F)(F)F)CC(F)(F)C2)C2CC2)CC=CCCCCNC(=O)[C@H](Cc2cc(Cl)ccc2Cl)N(C)C1=O (single isomer, unassigned) [Example 6-P2]	0.02	–	0.04	0.07	15.6	–	–	0.24
CC(C)C[C@@H]1NC(=O)[C@@H](N(C)C(=O)[C@@H](NC(=O)[C@@H]2C[C@@H](F)CN2C(=O)C2(C(F)(F)F)CC(F)(F)C2)C2CC2)CCCCCCCNC(=O)[C@H](Cc2cc(Cl)ccc2-c2cnn(C)c2)N(C)C1=O [Example 66] ({cBuCO(3,3-F2-1-CF3)}-[Pro(trans-4-F)][Gly(cPr)][NMe(hhhLys)]L[X22]; lactam 3-C)	–	–	0.01	0.01	12.9	–	–	–
CC(C)C[C@@H]1NC(=O)[C@@H](N(C)C(=O)[C@@H](NC(=O)[C@@H]2C[C@@H](F)CN2C(=O)C2(C(F)(F)F)CC3(CCC3)C2)C2CC2)CC=CCCCCN(C)C(=O)[C@H](Cc2cc(Cl)ccc2Cl)N(C)C1=O [Example 15]	0.02	–	0.18	0.55	7.85	–	–	1.04
Cc1ncc(-c2ccc(Cl)cc2C[C@H]2C(=O)N(C)CCCCCCC[C@H](N(C)C(=O)[C@@H](NC(=O)[C@@H]3C[C@@H](F)CN3C(=O)C3(C(F)(F)F)CC(F)(F)C3)C3CC3)C(=O)N[C@@H](CC(C)C)C(=O)N2C)s1 [Example 75] ({cBuCO(3,3-F2-1-CF3)}-[Pro(trans-4-F)][Gly(cPr)][NMehhhLys(Me)]L[X211]; lactam 3-C)	0.02	–	0.01	0.02	5.89	–	–	0.44
CC(C)C[C@@H]1NC(=O)[C@@H](N(C)C(=O)[C@@H](NC(=O)[C@@H]2C[C@@H](F)CN2C(=O)C2(C(F)(F)F)CC(F)(F)C2)C2CC2)CC=CCCCCNC(=O)[C@H](Cc2cc(Cl)ccc2Cl)N(C)C1=O (single isomer, unassigned) [Example 6-P1]	0.02	–	0.05	0.09	16.4	–	–	0.5
CC(C)C[C@@H]1NC(=O)[C@@H](N(C)C(=O)[C@@H](NC(=O)[C@@H]2C[C@@H](F)CN2C(=O)[C@]2(C(F)(F)F)CCCCO2)C2CC2)CCCCCCCN(C)C(=O)[C@H](Cc2cc(F)ccc2-c2cnn(C3CC3)c2)N(C)C1=O [Example 146] (X27-[Pro(trans-4-F)][Gly(cPr)][NMehhhLys(Me)]L[X26]; lactam 3-C)	0.02	0.03	0.02	0.02	–	–	–	0.1
CC(C)C[C@@H]1NC(=O)[C@@H](N(C)C(=O)[C@@H](NC(=O)[C@@H]2C[C@@H](F)CN2C(=O)C(C)(C)C(F)(F)F)C2CC2)CCCCCCCN(C)C(=O)[C@H](Cc2cc(Cl)ccc2-c2cnn(S(C)(=O)=O)c2)N(C)C1=O [Example 301] ({Pivaloyl(3,3,3-F3)}-[Pro(trans-4-F)][Gly(cPr)][NMehhhLys(Me)]L[X82]; lactam 3-C)	0.02	0.04	0.02	0.02	–	–	–	0.32
CC(C)C[C@@H]1NC(=O)[C@@H](N(C)C(=O)[C@@H](NC(=O)[C@@H]2C[C@@H](F)CN2C(=O)C2(C(F)F)CC(F)(F)C2)C2CC2)CCCCCCCN(C)C(=O)[C@H](Cc2cc(Cl)ccc2-c2ccc(N3CCOCC3)cc2)N(C)C1=O [Example 350] (X201-[Pro(trans-4-F)][Gly(cPr)][NMehhhLys(Me)]L[NMePhe(2-(4-MorPh),5-Cl)]; lactam 3-C)	0.02	0.02	0.01	0.01	–	–	–	0.88
CC(C)C[C@@H]1NC(=O)[C@@H](N(C)C(=O)[C@@H](NC(=O)[C@@H]2C[C@@H](F)CN2C(=O)C2(C(F)(F)F)CC(F)(F)C2)C2CC2)CCCCCCCN(C)C(=O)[C@H](Cc2cc(F)ccc2C2=C[C@H]3COC[C@@H](C2)N3C(=O)C(C)C)N(C)C1=O [Example 328] ({cBuCO(3,3-F2-1-CF3)}-[Pro(trans-4-F)][Gly(cPr)][NMehhhLys(Me)]L[X126]; lactam 3-C)	0.02	0.02	0.01	0.01	–	–	–	0.21
